We go through 15 compounds from PMC4775085 (ACS chemical neuroscience, 2015).

SMILES strings stand for the structures. In brackets after ≈: the same amount, converted by molar mass. Several values for one entry are separate records, joined by “and”; a condition that tells them apart may be missing. Equal values may be shown once. Read-outs that look alike come from different tables or passages of the source. A value given as a limit tells only on which side of the number the result lay.

For one series, the target named is T1, HDAC6 (Homo sapiens, UniProt Q9UBN7).
T1 sequence (Q9UBN7 1-1215): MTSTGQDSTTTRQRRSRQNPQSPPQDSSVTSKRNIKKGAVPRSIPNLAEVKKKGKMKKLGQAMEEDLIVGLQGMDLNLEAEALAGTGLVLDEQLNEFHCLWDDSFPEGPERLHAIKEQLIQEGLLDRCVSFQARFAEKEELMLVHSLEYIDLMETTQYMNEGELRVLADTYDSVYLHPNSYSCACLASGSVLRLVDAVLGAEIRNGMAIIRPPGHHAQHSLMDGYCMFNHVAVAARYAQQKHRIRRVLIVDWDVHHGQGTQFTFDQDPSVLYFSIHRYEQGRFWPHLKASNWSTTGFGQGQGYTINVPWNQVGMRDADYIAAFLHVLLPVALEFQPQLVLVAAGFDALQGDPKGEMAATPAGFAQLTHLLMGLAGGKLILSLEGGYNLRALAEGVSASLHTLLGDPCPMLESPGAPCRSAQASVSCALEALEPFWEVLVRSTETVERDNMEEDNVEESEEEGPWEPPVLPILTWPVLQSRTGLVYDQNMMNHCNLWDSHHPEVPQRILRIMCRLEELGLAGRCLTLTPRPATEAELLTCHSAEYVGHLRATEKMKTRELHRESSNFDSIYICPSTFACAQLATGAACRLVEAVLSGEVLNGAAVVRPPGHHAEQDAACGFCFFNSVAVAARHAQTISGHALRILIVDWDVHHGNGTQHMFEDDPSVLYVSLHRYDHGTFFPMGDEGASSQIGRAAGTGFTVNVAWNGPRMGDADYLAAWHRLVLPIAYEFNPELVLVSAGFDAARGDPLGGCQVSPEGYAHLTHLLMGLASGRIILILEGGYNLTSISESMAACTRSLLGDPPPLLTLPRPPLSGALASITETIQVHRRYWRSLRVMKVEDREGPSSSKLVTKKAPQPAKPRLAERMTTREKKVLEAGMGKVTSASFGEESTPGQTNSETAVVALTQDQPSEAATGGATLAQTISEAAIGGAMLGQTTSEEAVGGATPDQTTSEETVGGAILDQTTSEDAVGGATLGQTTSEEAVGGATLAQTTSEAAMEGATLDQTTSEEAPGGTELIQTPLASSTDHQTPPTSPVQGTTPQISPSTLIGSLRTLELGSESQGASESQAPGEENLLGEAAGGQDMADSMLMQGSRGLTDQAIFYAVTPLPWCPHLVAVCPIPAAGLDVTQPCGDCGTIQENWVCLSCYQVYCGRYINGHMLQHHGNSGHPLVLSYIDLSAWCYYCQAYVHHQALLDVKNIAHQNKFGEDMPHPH
Briefly: HDAC6 enzymatic inhibition assay. It counts as biochemical. The settings on record: for IC50: 10-point enzymatic assay starting from 30 μM, 3-fold serial dilution; for Selectivity HDAC1/HDAC6: ratio of HDAC1 and HDAC6 IC50 of Table 1 (fold).

A short description of another series: Aqueous solubility. The settings on record: PBS.
Another series has as its system mutant HSPB1 DRG neurons. Briefly: Mitochondrial axonal transport in mutant HSPB1 DRG neurons. As to conditions: DRG neurons from transgenic mutant HSPB1 mice, 100 nM overnight. It counts as cell-based, mouse.
Series [1] is described as follows: Intravenous and oral plasma pharmacokinetics in male CD1 mice. Format: in vivo. The settings on record: CD1, mouse.
The target in another series is T2, CYP 1A2 (Homo sapiens, UniProt P05177).
T2 sequence (P05177 1-516): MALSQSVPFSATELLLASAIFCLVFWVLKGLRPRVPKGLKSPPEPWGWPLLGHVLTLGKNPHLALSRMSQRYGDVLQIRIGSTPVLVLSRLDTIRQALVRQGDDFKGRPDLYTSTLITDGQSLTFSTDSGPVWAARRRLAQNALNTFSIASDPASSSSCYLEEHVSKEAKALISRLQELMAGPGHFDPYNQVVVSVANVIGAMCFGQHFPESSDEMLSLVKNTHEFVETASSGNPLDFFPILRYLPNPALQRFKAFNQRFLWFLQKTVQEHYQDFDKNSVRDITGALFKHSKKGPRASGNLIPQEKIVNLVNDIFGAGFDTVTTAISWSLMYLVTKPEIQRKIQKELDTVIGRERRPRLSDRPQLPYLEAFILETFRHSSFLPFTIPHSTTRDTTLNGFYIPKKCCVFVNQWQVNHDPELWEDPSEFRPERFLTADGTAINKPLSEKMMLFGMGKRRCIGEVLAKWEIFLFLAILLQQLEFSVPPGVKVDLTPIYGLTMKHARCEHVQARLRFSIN
Nature of the series: CYP inhibition 1A2.

The next series is described as follows: Caco-2 permeability. As to conditions: human, Caco-2, pH 7.4. It counts as in vitro ADME. For orientation: Passage across Caco-2 layers is used to estimate intestinal permeability.
Series [2] can be described thus: Hepatocyte stability, human. It counts as in vitro ADME. The settings on record: hepatocytes.
The target in a further series is CYP 2D6 (Homo sapiens, UniProt P10635). Nature of the series: CYP inhibition 2D6. Format: in vitro ADME.
Sequence of CYP 2D6 (P10635 whole entry): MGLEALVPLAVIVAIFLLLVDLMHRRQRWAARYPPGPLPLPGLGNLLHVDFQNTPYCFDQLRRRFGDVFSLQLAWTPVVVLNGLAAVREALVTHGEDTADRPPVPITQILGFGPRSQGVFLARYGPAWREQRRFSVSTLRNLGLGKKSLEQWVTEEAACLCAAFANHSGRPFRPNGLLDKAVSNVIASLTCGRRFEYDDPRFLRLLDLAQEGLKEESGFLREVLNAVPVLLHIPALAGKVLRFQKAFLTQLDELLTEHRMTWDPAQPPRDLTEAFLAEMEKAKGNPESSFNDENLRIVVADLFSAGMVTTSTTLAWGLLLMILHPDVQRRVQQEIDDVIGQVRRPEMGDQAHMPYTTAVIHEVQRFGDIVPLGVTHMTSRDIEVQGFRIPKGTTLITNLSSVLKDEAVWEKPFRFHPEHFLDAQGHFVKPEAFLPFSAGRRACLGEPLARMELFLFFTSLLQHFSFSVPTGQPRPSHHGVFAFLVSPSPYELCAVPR
The next series in a line: Plasma stability, mouse. It counts as in vitro ADME. As to conditions: 120 min.
Series [3] in a line: Liver microsomes stability, mouse. It counts as in vitro ADME. (In general: Liver microsomes are vesicles of endoplasmic reticulum, rich in cytochrome P450 enzymes.)
Series [4] is described as follows: Liver microsomes stability, human. It counts as in vitro ADME.
Another series can be described thus: Plasma stability, human. It counts as in vitro ADME. The settings on record: 120 min.
The target of a further series is CYP 2C19 (Homo sapiens, UniProt P33261). Briefly: CYP inhibition 2C19.
Sequence of CYP 2C19 (P33261 whole entry): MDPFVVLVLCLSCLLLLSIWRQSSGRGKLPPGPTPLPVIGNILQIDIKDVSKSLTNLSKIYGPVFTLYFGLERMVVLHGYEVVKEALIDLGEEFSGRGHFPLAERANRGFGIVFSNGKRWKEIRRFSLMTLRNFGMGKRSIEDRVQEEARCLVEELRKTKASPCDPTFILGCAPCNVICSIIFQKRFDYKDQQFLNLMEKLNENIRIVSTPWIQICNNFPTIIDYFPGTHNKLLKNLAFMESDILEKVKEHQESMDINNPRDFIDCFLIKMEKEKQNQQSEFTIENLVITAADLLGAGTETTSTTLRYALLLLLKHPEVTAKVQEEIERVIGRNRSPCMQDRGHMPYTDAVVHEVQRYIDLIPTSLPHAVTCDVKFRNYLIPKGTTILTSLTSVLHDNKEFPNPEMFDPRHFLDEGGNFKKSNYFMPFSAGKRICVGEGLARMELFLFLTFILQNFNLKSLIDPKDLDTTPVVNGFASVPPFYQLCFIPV
The target in a further series is CYP 2C9 (Homo sapiens, UniProt P11712). Briefly: CYP inhibition 2C9.
Sequence of CYP 2C9 (P11712 whole entry): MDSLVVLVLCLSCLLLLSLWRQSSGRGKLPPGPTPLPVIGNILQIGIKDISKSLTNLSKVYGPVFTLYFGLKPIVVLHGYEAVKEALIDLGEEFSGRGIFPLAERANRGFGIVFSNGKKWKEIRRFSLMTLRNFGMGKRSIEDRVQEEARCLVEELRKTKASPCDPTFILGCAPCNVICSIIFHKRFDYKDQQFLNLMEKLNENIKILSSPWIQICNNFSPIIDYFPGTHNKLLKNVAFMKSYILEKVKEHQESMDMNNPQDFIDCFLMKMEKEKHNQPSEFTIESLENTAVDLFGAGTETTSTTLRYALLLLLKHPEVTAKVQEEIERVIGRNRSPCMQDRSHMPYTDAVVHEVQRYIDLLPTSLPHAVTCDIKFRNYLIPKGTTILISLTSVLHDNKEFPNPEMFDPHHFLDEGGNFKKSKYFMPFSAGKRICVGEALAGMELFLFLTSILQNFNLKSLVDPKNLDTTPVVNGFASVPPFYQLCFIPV
A short description of series [5]: Hepatocyte stability, mouse. It counts as in vitro ADME. The settings on record: hepatocytes.
Setting [6] is: IC50 (nM) HDAC6, mean of two experiments ± standard deviation.

A word on the IC50: it is the concentration that gives 50% inhibition. `O=C(NO)c1ccc(CN2CCSc3ccccc32)cc1` [17c, 4-[[2,3-Dihydro-4H-benzo[b][1,4]thiazin-4-yl]methyl]-N-hydroxybenzamide] yielded an IC50 against HDAC6 (setting [6]) of 6 nM.
On to `CC(=O)NCCCc1nc2ccccc2n1Cc1ccc(C(=O)NO)cc1` [12d, 4-[[2-(3-Acetamidopropyl)-1-benzimidazolyl]methyl]-N-hydroxybenzamide], for which the “Selectivity HDAC1/HDAC6” value at HDAC6 was found to be 312.
The compound `O=C(NO)c1ccc(Cn2c(C(F)(F)F)nc3ccccc32)c(F)c1` [23e, 3-Fluoro-N-hydroxy-4-[(2-(trifluoromethyl)-1-benzimidazolyl)-methyl]benzamide] showed a half-inhibitory concentration (IC50) against HDAC6 (setting [6]) of 16 nM. Besides, at HDAC6, the “Selectivity HDAC1/HDAC6” value was determined as 1500.
On HDAC6 (setting [6]), `O=C(NO)c1ccc(CN2CCN(CC3CC3)c3ccccc32)cc1` [17b, 4-[[4-(Cyclopropylmethyl)-1,2,3,4-tetrahydroquinoxalin-1-yl]-methyl]-N-hydroxybenzamide] displayed an IC50 of 39.3 ± 0.3 nM.
As for `Cc1nc2ccccc2n1Cc1nc(C(=O)NO)co1` [23a, N-Hydroxy-2-[(2-methyl-1-benzimidazolyl)methyl]oxazole-4-carboxamide], the “fold reduction of HDAC6 activity compared to 12a” value at HDAC6 is listed as more than 400 fold.
Take `CC(C)(C)OC(=O)N1CC(=O)N(Cc2ccc(C(=O)NO)cc2)c2ccccc21` [17e, tert-Butyl 4-[4-(Hydroxycarbamoyl)benzyl]-3-oxo-3,4-dihydroquinoxaline-1(2H)-carboxylate]: the IC50 at HDAC6 (setting [6]) came to 34 nM.
As for `CN(C)CCc1nc2ccccc2n1Cc1ccc(C(=O)NO)cc1` [12e, 4-[[2-[2-(Dimethylamino)ethyl]-1-benzimidazolyl]methyl]-N-hydroxybenzamide], on HDAC6, the “Selectivity HDAC1/HDAC6” value was found to be 416.
In the case of `O=C(NO)c1ccc(Cn2c(=O)cnc3ccccc32)cc1` [17f, N-Hydroxy-4-[(2-oxoquinoxalin-1(2H)-yl)methyl]benzamide], the 50% inhibitory concentration (IC50) against HDAC6 (setting [6]) was determined as 1 nM.
Still for that read-out and setting: next, `O=C(NO)c1ccc(CN2CCNc3ccccc32)cc1` [17a, 4-[[1,2,3,4-Tetrahydroquinoxalin-1-yl]methyl]-N-hydroxybenzamide]: 3 nM.
One may read the aqueous solubility as how much of the substance goes into solution per volume. A high value points to much dissolved substance. Regarding `Cc1nc2ccccc2n1Cc1ccc(C(=O)NO)cc1` [12a], the aqueous solubility in “Aqueous solubility” (pH 7.4) was 70 µM (≈ 19.7 µg/mL). Besides, on HDAC6 (compared to 8 (hydrogen to methyl)), the “fold increase in HDAC6 inhibitory potency” value is reported as 3 fold. For the same compound, on HDAC6, the “Selectivity HDAC1/HDAC6” value was 955. The half-maximal inhibitory concentration (IC50) on HDAC6 (read-out: IC50 (nM) HDAC6, mean of two experiments ± standard deviation) was 9 nM and 9.2 nM. Further, the “mitochondrial axonal transport (number of moving mitochondria per 100 μm of neurite)” value with mutant HSPB1 DRG neurons is recorded as “able to restore the movement of mitochondria”.
In the case of `CC(C)c1nc2ccccc2n1Cc1ccc(C(=O)NO)cc1` [12b, N-Hydroxy-4-[(2-isopropyl-1-benzimidazolyl)methyl]benzamide], the “Selectivity HDAC1/HDAC6” value at HDAC6 amounted to 589.
In turn, `Cc1nc2ccccc2n1Cc1ccc(C(=O)NO)cn1` [23c, N-Hydroxy-6-[(2-methyl-1-benzimidazolyl)methyl]nicotinamide] yielded a half-inhibitory concentration (IC50) on HDAC6 (setting [6]) of 77 nM.
Consider `Cc1nc2ccccc2n1Cc1nc(C(=O)NO)cs1` [23b, N-Hydroxy-2-[(2-methyl-1-benzimidazolyl)methyl]thiazole-4-carboxamide], for which, at HDAC6 (setting [6]), the IC50 was found to be 8310 ± 905 nM. Moreover, the “fold reduction of HDAC6 activity compared to 12a” value on HDAC6 is on record as more than 900 fold.
At HDAC6 (setting [6]), `Cc1nc2cc(F)ccc2n1Cc1ccc(C(=O)NO)cc1` [30b, 4-[(5-Fluoro-2-methyl-1-benzimidazolyl)methyl]-N-hydroxybenzamide] registered an IC50 of 6 nM.
The term Tmax denotes the time at which the peak concentration occurs. For orientation: solubility means the concentration that dissolves in the medium under given conditions. Read a high solubility as much dissolved substance. In general, Papp A→B refers to how fast a substance crosses the layer from the apical side. A high value points to fast passage. Usually Papp B→A stands for the apparent permeability from the basolateral to the apical side of a cell layer. The half-life is the time in which the quantity being followed falls by half. A high value points to slow decline. Compound `CN1CCc2c(c3ccccc3n2Cc2ccc(C(=O)NO)cc2)C1` [tubastatin A, reference compound] gave a clearance in series [1] (iv, 3 mg/kg) of 222 mL/min/kg. The Tmax in [1] (po, 30 mg/kg) is 0.25 h. The solubility in “Aqueous solubility” (pH 7.4, aqueous buffer) was 301 µM (≈ 101 µg/mL). Further, the half-inhibitory concentration (IC50) on CYP 1A2 was more than 50000 nM; on CYP 2D6, 16000 nM; against CYP 2C19, more than 50000 nM; against CYP 2C9, more than 50000 nM. The Papp A→B in the series “Caco-2 permeability” came out at 2 ×10⁻⁶ cm/s. The Papp B→A in “Caco-2 permeability” is 19.7 ×10⁻⁶ cm/s. Besides, the half-life was 1.47 h in series [2], 5.05 h in series [3], 25.3 h in [4] and 0.5 h in [5]. The “plasma stability remaining percentage” value in the series “Plasma stability, mouse” is reported as 83.0%; in “Plasma stability, human” it was 96.4%. The “mitochondrial axonal transport (number of moving mitochondria per 100 μm of neurite)” value in the series with mutant HSPB1 DRG neurons is listed as “able to restore the movement of mitochondria”.
